Where “and” joins values, the source holds several entries; their conditions need not be identical. Equal values may be shown once.
Biological target: T1, human P450 11A1 (Homo sapiens, UniProt P05108)
T1 sequence (P05108 41-521 limits assumed): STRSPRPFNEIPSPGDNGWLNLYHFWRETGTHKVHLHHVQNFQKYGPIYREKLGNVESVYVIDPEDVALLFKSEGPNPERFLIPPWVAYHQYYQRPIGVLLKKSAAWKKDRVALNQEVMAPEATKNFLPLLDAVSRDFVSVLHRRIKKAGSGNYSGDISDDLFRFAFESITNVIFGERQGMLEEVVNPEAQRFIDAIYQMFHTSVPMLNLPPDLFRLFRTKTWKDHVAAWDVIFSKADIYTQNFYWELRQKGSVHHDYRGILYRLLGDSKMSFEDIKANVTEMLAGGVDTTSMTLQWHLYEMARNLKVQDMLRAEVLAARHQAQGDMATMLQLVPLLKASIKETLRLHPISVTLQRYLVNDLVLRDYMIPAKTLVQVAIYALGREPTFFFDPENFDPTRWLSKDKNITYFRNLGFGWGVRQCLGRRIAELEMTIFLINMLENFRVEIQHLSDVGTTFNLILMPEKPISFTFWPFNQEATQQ
T1 sequence (P00257 59-186 partner): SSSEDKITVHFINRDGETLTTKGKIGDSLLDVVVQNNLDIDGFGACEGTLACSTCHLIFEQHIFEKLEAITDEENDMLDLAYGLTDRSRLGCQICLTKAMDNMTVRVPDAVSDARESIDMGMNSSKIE
Assay: Fluorescence titration of Alexa 488-Adx with P450 11A1 ± cholesterol
Assay type: binding
Design: M A S T R S P R P F N E I P S P G D N; Met-Ala (N-terminal start residues in place of the transit peptide and Ile40) (N); made in house; host or cells: E. coli (P450 11A1 in C41(DE3); Adx and AdR in E. coli)
Procedure: Because Adx has been reported to stimulate the binding of P450 11A1 to its substrates ([12], [44]), we examined whether the binding of detergent-free P450 11A1 to Adx is enhanced by cholesterol, utilizing our fluorescently-labeled Adx construct (Alexa 488-Adx) ([45]). A 1:1 M complex of P450 11A1 and cholesterol was gradually titrated into a solution containing Alexa 488-Adx (50 nM), and the quenching of Adx fluorescence was monitored over the course of the reaction.
Figure 7 Effect of cholesterol on P450 11A1 binding to Adx.A, titration of P450 11A1 (0–400 nM) into Alexa 488-Adx (50 nM) gradually quenched the fluorophore and yielded a decrease in fluorescence output (between 500 and 600 nm). Spectra were collected after each addition of P450. B, normalized fluorescence (F/F0) of titrations of P450 11A1 with (▪, red) and without (•, black) cholesterol (equimolar). A 1:1 M complex of P450 and cholesterol was used as titrant, where indicated. […]
A previously described Alexa Fluor 488-labeled Adx construct and experimental protocol were used ([45]) to perform the fluorescence titration of P450 11A1 with Adx. […] P450 11A1 was gradually titrated (0–0.4 μM) into the cuvette (to a maximum of 2% (v/v)), and spectra were recorded using an OLIS DM-45 spectrofluorometer (1.24 mm slit width) with fluorophore excitation at 493 nm and scanning emission spectra from 500 to 600 nm. […]

## CC(C)CCC[C@@H](C)[C@H]1CC[C@H]2[C@@H]3CC=C4C[C@@H](O)CC[C@]4(C)[C@H]3CC[C@]12C [Cholesterol]
Equimolar cholesterol
  stimulation of binding of P450 11A1 to Adx: ~5 fold and ~4.5 fold
From the 4.5-fold change in Kd
  change in Gibbs free energy of Adx binding: < 1 kcal/mol

From publication PMC10716780, “The multistep oxidation of cholesterol to pregnenolone by human cytochrome P450 11A1 is highly processive” (The Journal of Biological Chemistry, 2023)
